Literature values as cited in patent US8691198B2, “Environmentally benign plasticizers based on derivatives of acetone” (priority 2010, dated 2014).
Read-outs that look alike come from different tables or passages of the source.

Tests used:
[1] = tested on: rat
[2] = degradation through oxidation forming phosphoric acid and the corresponding alcohols

Compound: OCC1(O)COC(O)(CO)CO1 (centres unmarked) [1,3-dihydroxyacetone dimer]
- LD50 (oral, rat) ([1]; oral): sixty thousand

Compound: CCCC(=O)O [Butyric acid]
- LD50(rat) ([1]; left half of Table 1): 2940 mg/kg

Compound: CCCCCC(=O)O [Caproic acid]
- LD50(rat) × ([1]; right half of Table 1): 3000 mg/kg

Compound: CCCCCCCC(=O)O [Caprylic acid]
- LD50(rat) × ([1]; in vivo): 600 mg/kg

Compound: CC(CC(C)(C)C)CP(=O)(O)CC(C)CC(C)(C)C (centres unmarked) [Cyanex 272, Bis-(2,4,4-trimethylpentyl) phosphinic acid, reference compound]
- biodegradability [2]: biodegradable
- LD50(rat) [1]: 3500 mg/kg

Compound: CCCCCCC(=O)O [Heptanoic Acid]
- LD50(rat) × ([1]; right half of Table 1): 7000 mg/kg

Compound: CCCCC(=O)O [Pentanoic Acid]
- LD50(rat) ([1]; in vivo): 1844 mg/kg
